In patent publication US6608049B2, “Indazoles” (Bayer Aktiengesellschaft, priority 2000, dated 2003):
pEC50: −log10 of the molar value.

Assay: T3 promoter assay cell test (luciferase reporter under a thyroid hormone-regulated promoter)
Type: cell-based
Settings: Homo sapiens; HepG2 luciferase reporter; costimulator retinolic acid; incubation 48 or 72 hours; four replicates
Method: The efficacy of the compounds according to the invention can be tested, for example, in vitro by the T3 promoter assay cell test described below:
The test is carried out using a stably transfected, human HepG2 hepatocarcinoma cell which expresses a luciferase gene under the control of a thyroid hormone-regulated promoter. The vector used for the transfection carries a minimal thymidine kinase promoter ahead of the luciferase gene having a thyroid hormone-responsive element (TRE) which consists of two inverted palindromes of 12 bp each and one 8 bp spacer.
For the test, the cell cultures are inoculated into 96 well plates in Eagle's Minimal Essential Medium with the following additives: glutamine, tricine [N-(tris-(hydroxymethyl)-methyl)-glycine], sodium pyruvate, non-essential amino acids (L-Ala, L-Asn, L-Asp, L-Pro, L-Ser, L-Glu, Gly), insulin, selenium and transferrin. The cultures are grown at 37° C. and under a 10% CO2 atmosphere for 48 hours. Serial dilutions of test substance or reference compound (T3, T4) and costimulator retinolic acid are then added to the test cultures and these are incubated for a further 48 or 72 hours as beforehand. Each substance concentration is tested in four replicates. For the determination of the luciferase induced by T3 or other substances, the cells are then lysed by addition of a Triton- and […] buffer (Promega) and immediately measured luminometrically. The EC50 values of each compound are calculated.

pEC50	SMILES
8.00	CCCCCc1n[nH]c2ccc(Oc3c(C)cc(NC(=O)C(=O)OCC)cc3C)cc12 [Example 11, Ethyl ({3,5-dimethyl-4-[(3-pentyl-1H-indazol-5-yl)oxy]phenyl}amino)(oxo)acetate]
6.94	CCCc1n[nH]c2ccc(Oc3c(C)cc(N)cc3C)cc12 [Example 4, 5-(4-Amino-2,6-dimethylphenoxy)-3-propyl-1H-indazole]
7.89	CCCCCc1n[nH]c2ccc(Oc3c(C)cc(NC(=O)C(=O)O)cc3C)cc12 [Example 11a, ({3,5-dimethyl-4-[(3-pentyl-1H-indazol-5-yl)oxy]phenyl}amino)(oxo)acetic acid]
7.74	CCCCCc1n[nH]c2ccc(Oc3c(C)cc(NC(=O)CC(=O)OC)cc3C)cc12 [Example 18, Methyl-({3,5-dimethyl-4-[(3-pentyl-1H-indazol-5-yl)oxy]phenyl}amino)-3-(oxo)-propionate]
6.72	CCOC(=O)C(=O)Nc1cc(C)c(Oc2ccc3[nH]nc(C(C)C)c3c2)c(C)c1 [Example 9, Ethyl ({3,5-dimethyl-4-[(3-isopropyl-1H-indazol-5-yl)oxy]phenyl}amino)(oxo)-acetate]
8.00	CCCCCc1n[nH]c2ccc(Oc3c(C)cc(NCC(=O)OCC)cc3C)cc12 [Example 16, Ethyl ({3,5-dimethyl-4-[(3-pentyl-1H-indazol-5-yl)oxy]phenyl}amino)acetate]
